The subject of data set [1] is Chinese hamster lung (CHL) cell. Briefly: Chromosomal aberration test using Chinese hamster lung (CHL) cell. The data set is classed as cell-based. The note with it: for induction of chromosomal aberration: CHL cell, overall conclusion. The source says:
For measuring the induction of chromosomal aberration, the chromosomal aberration test has been carried out using Chinese hamster lung (CHL) cell. 2 kinds of methods have been adopted, such as, metabolic activation method (+S9) using metabolic activation system and direct method (−S9) without metabolic activation system.
For determining the test material reacting concentration, the cell growth inhibition test has been carried out. The test material has been dissolved and diluted in dimethyl sulfoxide (DMSO). Regardless of metabolic activation system, 12 concentration steps (2.43, 4.87, 9.75, 19.5, 39.1, 78.1, 156.3, 312.5, 625, 1250, 2500, 5000 μg/ml) of test material have been prepared. The cells have been cultured for 24 hours as the same way of main test. […] The medium has been further cultured for 18 hours.
Based upon the data of cell growth inhibition test, maximum concentration has been determined when the cell growth has been inhibited up to 50% as the relative cell numbers.
Regardless of metabolic activation system, the test materials have been prepared after 24 hours from the initiation of test. Then, the number of chromosomal aberration has been counted.

Data set [2] deals with HCl-Ethanol inducing gastritis model. Description: HCl-Ethanol inducing gastritis model. The note with it: for anti-gastritis efficacy: all administration groups. It is filed as in vivo, white rats. As for the experimental part:
After white rats have been fasted for 24 hours, CD-101, CD-102 and CD-103 compound have been orally administered according to method disclosed in Mizui et al., Jap. J. Pharmacol. 33: pp. 939-945 (1983). After 1 hour, 1.5 ml of 60% ethanol including 150 mM HCl has been orally administered to each animal. 1 hour later, animals have been sacrificed by cervical dislocation. After removing the stomach, the stomach has been fixed by injection of 13 ml of 2% formalin for 1 hour. After fixed stomach has been spread out, the lesion area has been measured using the photo by digital camera. Computer program Image J 1.38 (NIH, Bethesda, Md.) has been applied for measuring gastric lesion area (mm^2) The lesion inhibition rate has been calculated according to following equation. Further, 50% effective dose (ED50) has been also calculated using regression analysis.
Lesion inhibition rate(%)={gastric lesion area of control group(mm^2)−gastric lesion area of drug administration group(mm^2)}/gastric lesion area of control group(mm^2)×100

In data set [3] the test system is indomethacin inducing stomach ulcer model. Description: Indomethacin inducing stomach ulcer model. It is filed as in vivo, white rats. The note with it: oral; for anti-stomach ulcer efficacy: all administration groups. As for the experimental part: After white rats have been fasted for 24 hours, CD-101, CD-102 and CD-103 compound have been orally administered according to method disclosed in Yamasaki et al., Jap. J. Pharmacol. 49: pp. 441-448 (1989). After 1 hour, indomethacin (50 mg/kg) has been orally administered to each animal After fasting for 5 hours, animals have been sacrificed by cervical dislocation. After removing the stomach, the stomach has been fixed by injection of 13 ml of 2% formalin for 1 hour. After fixed stomach has been spread out, the lesion area has been measured using the photo by digital camera. Computer program Image J 1.38 (NIH, Bethesda, Md.) has been applied for measuring gastric lesion area (mm^2) The lesion inhibition rate and 50% effective dose (ED50) have been calculated as the same manner of HCl-EtOH model.

Marks after values point to notes of the source that are not given here.

With `C=C1C(=O)O[C@@H]2/C=C(\C)CCC(O)C(C)(O)C[C@@H](OC(C)=O)C12` (stereo partly drawn) [reference compound], the “Chromosomal aberration test Result” value in data set [1] (Table 5, +S9, dose not stated) is on record as “positive positive”; in data set [1] (Table 5, −S9, dose not given), “positive positive”.
As for `CC1=C2C3OC(=O)[C@@H](C)[C@@H]3CC[C@@]2(C)C=CC1=O` (stereo partly drawn), the Lesion inhibition rate entry in data set [2] (Table 2, ineffective compounds, dose not stated) is given as “no effect”.
For `C=C1C(=O)O[C@@H]2[C@@H](O)[C@]3(C)CC[C@H]3[C@](C)(OC)CC[C@@H]12` [CD-101], the “Chromosomal aberration test Results” value in data set [1] (+S9, dose 10 μg/kg) was “negative”; in data set [1] (+S9, dose 20 μg/kg), “negative”; in data set [1] (+S9, dose 40 μg/kg), “negative”; in data set [1] (−S9, dose 2.5 μg/ml), “negative”; in data set [1] (−S9, dose 5 μg/kg), “negative”; in data set [1] (−S9, dose 10 μg/kg) it was “negative”. Moreover, the “induction of chromosomal aberration” value in data set [1] is “do not induce the chromosomal aberration”. Besides, in data set [3], the anti-stomach ulcer efficacy entry is “dose dependent manner”. In addition, the Lesion inhibition rate in data set [3] (dose 1 mg/kg) is 26.9%; in data set [3] (dose 3 mg/kg), 56.6%; in data set [3] (dose 10 mg/kg) it was 73.1%; in data set [2] (oral, dose 1 mg/kg) it was 42.3%; in data set [2] (oral, dose 3 mg/kg) it was 74.7%; in data set [2] (oral, dose 10 mg/kg), 91.8%. For the same molecule, the anti-gastritis efficacy result in data set [2] (oral) was “dose dependent manner”.
Regarding `CO[C@@]12[C@H](COC(N)=O)C3=C(C(=O)C(C)=C(N)C3=O)N1C[C@@H]1N[C@@H]12` [Mitomycin C, reference compound], the “Chromosomal aberration test Results” value in data set [1] (−S9, dose 0.5 μg/kg) is “positive”.
In the case of `C=C1C(=O)O[C@@H]2[C@@H]3[C@@H](CC[C@@]3(C)O)[C@](C)(OC)CC[C@@H]12` [CD-103], the “Chromosomal aberration test Results” value in data set [1] (+S9, dose 2.5 μg/ml) is reported as “negative”; in data set [1] (+S9, dose 5 μg/kg), “negative”; in data set [1] (+S9, dose 10 μg/kg), “negative”; in data set [1] (−S9, dose 0.625 μg/kg), “negative”; in data set [1] (−S9, dose 1.25 μg/kg) it was “negative”; in data set [1] (−S9, dose 2.5 μg/ml) it was “negative”. The “induction of chromosomal aberration” value in data set [1] is reported as “do not induce the chromosomal aberration”. Further, the anti-stomach ulcer efficacy result in data set [3] was “dose dependent manner”. The Lesion inhibition rate is listed as 37.9% in data set [3] (dose 1 mg/kg); 57.3% in data set [3] (dose 3 mg/kg); 74.0% in data set [3] (dose 10 mg/kg); 56.9% in data set [2] (oral, dose 1 mg/kg); 66.9% in data set [2] (oral, dose 3 mg/kg); 99.5% in data set [2] (oral, dose 10 mg/kg). In data set [2] (oral, dose 30 mg/kg), this molecule came in with a Lesion inhibition rate of 99.5%. Moreover, the “50% effective dose (ED50)” value is on record as 2.06 mg/kg in data set [3] (regression analysis of lesion inhibition) and 2.55 mg/kg in data set [2] (oral, regression analysis of lesion inhibition). The anti-gastritis efficacy entry in data set [2] (oral) is reported as “dose dependent manner”.
Regarding `CC(=O)O[C@@H]1/C=C(\C)CCC/C(C)=C/[C@H]2OC(=O)[C@H](CN(C)C)C12` (stereo partly drawn) [reference compound], the “Chromosomal aberration test Result” value is listed as “positive positive” in data set [1] (Table 5, +S9, dose not stated) and “positive positive” in data set [1] (Table 5, −S9, dose not given).
As to `C=C1C(=O)O[C@@H]2[C@@H]3[C@@H](CC[C@@]3(C)O)C(=C)CC[C@@H]12` [CD-102], the “Chromosomal aberration test Results” value in data set [1] (+S9, dose 5 μg/kg) was “negative”; in data set [1] (+S9, dose 10 μg/kg), “negative”; in data set [1] (+S9, dose 20 μg/kg), “negative”; in data set [1] (−S9, dose 1.25 μg/kg), “negative”; in data set [1] (−S9, dose 2.5 μg/ml) it was “negative”; in data set [1] (−S9, dose 5 μg/kg) it was “negative”. In addition, the “induction of chromosomal aberration” value in data set [1] is on record as “do not induce the chromosomal aberration”. Also, the ED50 was found to be 1.82 mg/kg in data set [3] (Rattus norvegicus, regression analysis of lesion inhibition, read-out: 50% effective dose (ED50)) and 1.31 mg/kg in data set [2] (Rattus norvegicus, oral, regression analysis of lesion inhibition, read-out: 50% effective dose (ED50)). For the same molecule, in data set [3], the anti-stomach ulcer efficacy entry is given as “dose dependent manner”. The Gastric lesion area in data set [3] (dose 1 mg/kg) was 35.0 ± 5.2 mm^2; in data set [3] (dose 3 mg/kg) it was 26.3 ± 6.8* mm^2; in data set [3] (dose 10 mg/kg), 13.6 ± 2.9* mm^2; in data set [2] (oral, dose 1 mg/kg), 133.5 ± 21.0* mm^2; in data set [2] (oral, dose 3 mg/kg) it was 69.4 ± 18.4* mm^2; in data set [2] (oral, dose 10 mg/kg), 11.9 ± 10.0* mm^2. Moreover, the Lesion inhibition rate is recorded as 41.6% in data set [3] (dose 1 mg/kg); 56.1% in data set [3] (dose 3 mg/kg); 77.2% in data set [3] (dose 10 mg/kg); 43.0% in data set [2] (oral, dose 1 mg/kg); 70.4% in data set [2] (oral, dose 3 mg/kg); 94.9% in data set [2] (oral, dose 10 mg/kg). Besides, the anti-gastritis efficacy entry in data set [2] (oral) is given as “dose dependent manner”.
Regarding `C=C1C(=O)O[C@@H]2/C=C(\C)CC/C=C(\C)C[C@@H](OC(C)=O)C12` (stereo partly drawn) [reference compound], the “Chromosomal aberration test Result” value in data set [1] (Table 5, +S9, dose not stated) is “positive positive”; in data set [1] (Table 5, −S9, dose not given), “positive positive”.
`O=C(NC(Cc1cc(=O)[nH]c2ccccc12)C(=O)O)c1ccc(Cl)cc1` (stereo not drawn) [Rebamipide, reference compound]: the Lesion inhibition rate in data set [3] (dose 50 mg/kg) is listed as 49.6%; in data set [2] (oral, dose 50 mg/kg), 30%.

As usually defined, the ED50 is the dose that gives a 50% effect, or the effect in half of the subjects.

Source of the values: patent US20150299155A1, “Sesquiterpene lactone-based pharmaceutical composition for treating gastrointestinal diseases” (CHO DANG PHARM. CO., LTD., priority 2012, published 2015).
